The source made the active and inactive calls. No cut-off for these calls is given here.
Columns and labels:
[1] = target: Heat shock protein HSP 90-alpha (Homo sapiens, UniProt P07900); assay: Binding affinity to N-terminal 6His/SUMO-tagged recombinant human HS90AA1 assessed as dissociation constant incubated for 30 mins by MST analysis
[2] = Acute toxicity in male C57BL/6J mouse assessed as effect on ALT level at 2 g/Kg, IG measured after 72 hrs; conditions: in vivo, po, 2000 mg/kg
HT-29 [3] = assay: Downregulation of MLKL protein level in human HT-29 cells at 3 to 6 uM incubated for 9 hrs by Western blot analysis; assay type: functional, cell-based; conditions: dose 3-6 µM
[4] = Acute toxicity in male C57BL/6J mouse assessed as effect on ALP level at 2 g/Kg, IG measured after 72 hrs; conditions: in vivo, po, 2000 mg/kg
[5] = target: Receptor-interacting serine/threonine-protein kinase 3 (Homo sapiens) (UniProt Q9Y572); assay: Inhibition of RIPK3 phosphorylation in TSZ-induced human HT-29 cells at 10 uM preincubated with compound followed by Z-VAD-FMK, SM164 and TNFalpha stimulation and measured within 6 hrs by Western blot analysis relative to control; assay type: cell-based
Receptor-interacting serine/threonine-protein kinase 3 (Homo sapiens), sequence (Q9Y572 whole entry, looked up): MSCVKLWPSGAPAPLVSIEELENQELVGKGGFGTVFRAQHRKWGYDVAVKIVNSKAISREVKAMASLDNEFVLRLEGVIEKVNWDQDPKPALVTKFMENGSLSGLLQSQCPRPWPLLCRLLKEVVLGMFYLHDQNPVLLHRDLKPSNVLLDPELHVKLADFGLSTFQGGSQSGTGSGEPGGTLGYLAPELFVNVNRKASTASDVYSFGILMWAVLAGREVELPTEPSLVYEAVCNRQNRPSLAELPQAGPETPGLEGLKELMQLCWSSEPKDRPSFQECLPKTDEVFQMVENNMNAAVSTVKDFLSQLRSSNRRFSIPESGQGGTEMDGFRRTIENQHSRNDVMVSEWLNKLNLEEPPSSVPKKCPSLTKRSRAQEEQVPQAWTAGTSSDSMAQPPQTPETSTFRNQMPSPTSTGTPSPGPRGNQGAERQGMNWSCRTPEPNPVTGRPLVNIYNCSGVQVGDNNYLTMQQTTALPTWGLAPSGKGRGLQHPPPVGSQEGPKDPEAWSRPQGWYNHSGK

[6] = Acute toxicity in male C57BL/6J mouse assessed as inflammatory cell infiltration in stomach at 2 g/Kg, IG measured after 72 hrs by H and E staining based analysis; assay type: tissue-based; conditions: in vivo, po, 2000 mg/kg
[7] = Acute toxicity in male C57BL/6J mouse assessed as structural changes in intestine at 2 g/Kg, IG measured after 72 hrs by H and E staining based analysis; assay type: tissue-based; conditions: in vivo, po, 2000 mg/kg
Mus musculus [8] = assay: (§1) Anti-necroptotic activity in TNFalpha/Z-VAD-FMK induced SIRS male C57BL/6J mouse model assessed as protection from death at 2.5 to 10 mg/kg, po pre-administered with compound via gavage for 2 hrs followed by […] of Z-VAD-FMK stimulation for 15 mins with subsequent TNF-alpha stimulation for 1 hrs and re-current […] of Z-VAD-FMK stimulation and measured after 8 hrs post SIRS induction; assay type: functional, organism-based; conditions: dose 2.5-10 mg/kg, time 10.0 hrs
HT-29 [9] = assay: Downregulation of RIPK3 protein level in human HT-29 cells at 6 uM preincubated with MG132 for 2 hrs followed by compound addition and measured after 9 hrs by Western blot analysis; assay type: functional, cell-based
Mus musculus [10] = assay: as §1, with “survival rate” for “protection from death”, “5” for “2.5 to 10”, “induction relative to control” for “induction”; assay type: functional; conditions: time 10 hrs
Mus musculus [11] = assay: as §1, with “reduction in IL6 in brain” for “protection from death”, “5” for “2.5”, “induction by ELISA” for “induction”; assay type: functional, organism-based; conditions: dose 5-10 mg/kg, time 10.0 hrs
[12] = Acute toxicity in male C57BL/6J mouse assessed as structural changes in stomach at 2 g/Kg, IG measured after 72 hrs by H and E staining based analysis; assay type: tissue-based; conditions: in vivo, po, 2000 mg/kg
RAW264.7 = assay: Anti-necroptotic activity in LZ-induced mouse RAW264.7 cells assessed as increase in cell viability preincubated with compound followed by LPS and Z-VAD-FMK stimulation and measured after 16 hrs by CellTiter-Lumi luminescent cell viability assay; assay type: functional, cell-based
HT-29 [13] = assay: Effect on cell morphology in TSZ-induced necroptotic human HT-29 cells at 10 uM measured after 12 hrs by Live-cell super-resolution panoramic microscopic analysis; assay type: functional, cell-based
Mus musculus [14] = assay: as §1, with “hypothermia” for “death”; assay type: functional, organism-based; conditions: dose 2.5-10 mg/kg, time 10.0 hrs
[15] = Acute toxicity in male C57BL/6J mouse assessed as inflammatory cell infiltration in spleen at 2 g/Kg, IG measured after 72 hrs by H and E staining based analysis; assay type: tissue-based; conditions: in vivo, po, 2000 mg/kg
HT-29 [16] = assay: Anti-apoptotic activity in TC-induced human HT-29 cells assessed as increase in cell viability at 1.25 to 20 uM preincubated with compound followed by TNF-alpha and cycloheximide addition and measured after 24 hrs by CellTiter-Lumi luminescent cell viability assay; assay type: functional, cell-based; conditions: dose 1.25-20 µM
[17] = AUC (0 to 24 hrs) in Sprague-Dawley rat at 2 mg/kg, iv measured after 24 hrs by LC-MS/MS analysis; assay type: ADME, organism-based; conditions: in vivo
HT-29 [18] = assay: Upregulation of HSP70 expression in human HT-29 cells at 1.5 uM incubated for 9 hrs by Western blot analysis; assay type: functional, cell-based
HT-29 [19] = assay: Downregulation of RIPK3 protein level in human HT-29 cell supernatant at 6 uM measured after 9 hrs by Western blot analysis; assay type: functional, cell-based
[20] = Acute toxicity in male C57BL/6J mouse assessed as structural changes in liver at 2 g/Kg, IG measured after 72 hrs by H and E staining based analysis; assay type: tissue-based; conditions: in vivo, po, 2000 mg/kg
Mus musculus [21] = assay: as §1, with “survival rate” for “protection from death”, “at” for “at 2.5 to”, “induction relative to control” for “induction”; assay type: functional; conditions: time 10 hrs
HT-29 [22] = assay: Downregulation of RIPK1 protein level in human HT-29 cell supernatant at 6 uM measured after 9 hrs by Western blot analysis; assay type: functional, cell-based
HT-29 [23] = assay: Downregulation of EGFR expression in human HT-29 cells at 0.75 to 6 uM incubated for 9 hrs by Western blot analysis; assay type: functional, cell-based; conditions: dose 0.75-6 µM
HT-29 [24] = assay: Anti-necroptotic activity in TSZ-induced human HT-29 cells assessed as cell survival at 10 uM measured after 12 hrs by Live-cell super-resolution panoramic microscopic analysis (reference value: 8 hrs); assay type: functional
[25] = target: Heat shock protein HSP90 (Homo sapiens) (UniProt P07900+P08238); assay: Inhibition of HSP90 in TSZ-induced human HT-29 cells assessed as reduction in EGFR protein level preincubated with compound followed by Z-VAD-FMK, SM164 and TNFalpha stimulation and measured after 6 hrs by Western blot analysis; assay type: cell-based; conditions: dose 0.625-10 µM
HT-29 [26] = assay: Anti-necroptotic activity in TCZ-induced human HT-29 cells assessed as increase in cell viability at 1.25 uM preincubated with compound followed by Z-VAD-FMK, cycloheximide and TNFalpha addition and measured after 16 hrs by CellTiter-Lumi luminescent cell viability assay relative to control; assay type: functional
HeLa = assay: Inhibition of RIPK1 protein expression in RIPK3-deficient human HeLa cells at 6 uM preincubated with NH4Cl for 2 hrs followed by compound addition and measured after 9 hrs by Western blot analysis; assay type: functional, cell-based

## Cn1ccc(-c2ccc(NC(=O)[C@]34CCC(C)(C)C[C@H]3[C@H]3C(=O)C=C5[C@@]6(C)C=C(C#N)C(=O)C(C)(C)[C@@H]6CC[C@@]5(C)[C@]3(C)CC4)cc2)n1
[1]
  Kd: 185 nM
[2]
  Activity: Non-toxic
HT-29 [3]
  Activity: Active; Significant Effect Observed
[4]
  Activity: Non-toxic
[5]
  inhibition: 100%
[6]
  Activity: Non-toxic
[7]
  Activity: Non-toxic
Mus musculus [8]
  Activity: Active
HT-29 [9]
  Activity: Active
Mus musculus [10]
  survival at 5 mg/kg: 58%
Mus musculus [11]
  Activity: Active
[12]
  Activity: Non-toxic
RAW264.7
  Activity: Dose-dependent-effect
HT-29 [13]
  Activity: Active
Mus musculus [14]
  Activity: Active
[15]
  Activity: Non-toxic
HT-29 [16]
  Activity: inactive
[17]
  AUC(0-t) at 24 h: 4640 ng·h/mL
HT-29 [18]
  Activity: Active
HT-29 [19]
  Activity: Active
[20]
  Activity: Non-toxic
Mus musculus [21]
  survival at 10 mg/kg: 100%
HT-29 [22]
  Activity: Active
HT-29 [23]
  Activity: Active
HT-29 [24]
  Survival: 9 h
[25]
  inhibition: Dose-dependent-effect
HT-29 [26]
  Activity: 100%
HeLa
  inhibition: Active
